{"source": "patent US20040076663A1", "about": "“Complexed-acidic-phospholipid-collagen composites for bone induction” (priority 2002, published 2004)", "system": "human osteoblast-like cells, MG-63", "experiment": "Cell binding to complexed acidic phospholipid collagen composite (cell adherence and proliferation)", "assay_type": "cell-based", "settings": "MG-63 cell cultures; composite sterilized under UV light", "text": "Before usage, the prepared composite was sterilized under UV light."}
{"substance": "fibronectin", "values": [{"measurement": "cell adherence and proliferation", "result": "some cells remain in clumps and there appeared to be fewer cells that adhered compared to those exposed to either of the composite formulations"}]}
